Tests used:
ERα = ERα (Homo sapiens (Human), UniProt P03372); assay: ERα degradation (MCF7 cells), in-cell Western; assay type: cell-based; settings: MCF7 cells; for % ERα remaining: remaining ERα protein at 10 μM ligand, relative to DMSO control; for IC50: inflection point of the degradation in response to ligand concentration
Experimental: ERα Degradation (MCF7 Cells)
(§1) The column titled MCF7 IC50 reports the inflection point of the inhibition of transcription in MCF7 cells as described above. Percentage ERα remaining reports the remaining ERα protein measured at 10 μM concentration of the ligand as described above. The column ERα IC50 reports the inflection point of the degradation in response to the ligand concentration.

[1] = molecular target: ER (endogenous, MCF7 cells) (Homo sapiens (Human), UniProt P03372); assay: ER transcription assay (MCF7 cells), ERE-luciferase reporter; assay type: cell-based; settings: inflection point of the inhibition of transcription in MCF7 cells; 0.1 nM estradiol, 24 hours; read-out: MCF7 IC50
Sequence of ER (endogenous, MCF7 cells) (P03372 whole entry): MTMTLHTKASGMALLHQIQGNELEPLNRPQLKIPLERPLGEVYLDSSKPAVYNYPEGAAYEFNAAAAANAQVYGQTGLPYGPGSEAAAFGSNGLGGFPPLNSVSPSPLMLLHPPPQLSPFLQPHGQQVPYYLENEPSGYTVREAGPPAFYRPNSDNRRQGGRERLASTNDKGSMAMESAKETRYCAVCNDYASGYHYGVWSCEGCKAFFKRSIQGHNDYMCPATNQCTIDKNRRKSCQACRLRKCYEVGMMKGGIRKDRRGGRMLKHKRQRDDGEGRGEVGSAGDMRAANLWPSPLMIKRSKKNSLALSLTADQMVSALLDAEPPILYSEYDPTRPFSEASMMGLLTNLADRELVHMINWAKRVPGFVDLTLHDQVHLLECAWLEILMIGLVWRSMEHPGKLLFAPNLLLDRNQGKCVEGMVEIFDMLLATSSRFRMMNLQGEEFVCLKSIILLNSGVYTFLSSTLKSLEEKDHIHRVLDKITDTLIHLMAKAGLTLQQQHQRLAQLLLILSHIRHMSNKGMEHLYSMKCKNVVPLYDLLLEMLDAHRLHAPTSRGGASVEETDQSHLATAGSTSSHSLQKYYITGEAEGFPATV
Description: ER Transcription Assay (MCF7 Cells)
The ER transcription assay is a reporter assay that is based on the ability of ER to induce transcription from a luciferase reporter gene containing estrogen response elements (EREs) in the promoter/enhancer region. When the reporter gene is transfected in MCF7 cells (containing endogenous ER), transcription is reflected by the level of luciferase expression.
A day before transfection, cells are split into a T75 flask at a cell density of 300,000 cells/mL (10 mL total) and allowed to attach overnight in a humidified CO2 incubator at 37° C.
Approximately 20 ug DNA is mixed in OptiMEM (Invitrogen) to a total volume of 650 μL. Following incubation, the OptiMEM-DNA mixture is added to the OptiMEM-Lipofectin mix and incubated for 15 minutes at 37° C. The DNA-Lipofectin mixture is then added directly to the T75 flask and the flask is returned to the incubator.
Normally, DMSO (used as a vehicle) is included to achieve a final concentration of 0.1% when added to the cells. Transfected cells are trypsinized, resuspended in DMEM/F12/10% charcoal-stripped serum and added to the 96-well plate at 25,000 cells/well in 90 μL of media. The plate is then returned to the incubator for 24 hours.
After incubation with compounds for 24 hours, Firefly and Renilla luciferase activities are measured to determine ER transcriptional activity. Media is removed from 96-well plates by decanting and blotting on paper towels.
One second total read time after a one second delay.
One second total read time after one second delay. If Firefly luciferase signal is high, Renilla assay must be done an hour after the Firefly assay due to incomplete squelching of Firefly signal.
as §1

Sequence of ERα (P03372 whole entry): as above

`COC(=O)/C=C/c1ccc(Oc2c(-c3ccc(O)c(C)c3)sc3cc(O)ccc23)cc1` [Example 41, (E)-methyl 3-(4-((6-hydroxy-2-(4-hydroxy-3-methylphenyl)-benzo[b]thiophen-3-yl)oxy)phenyl)acrylate] was tested, and the “% ERα remaining” value (ERα) was 32% and the IC50 [1] was 10000 nM.
With `CC(C)c1ccccc1-c1sc2cc(OCN3C(=O)c4ccccc4S3(=O)=O)ccc2c1Oc1ccc(/C=C/C(=O)O)cc1` [Example 84, (E)-3-(4-((6-((1,1-dioxido-3-oxobenzo [d]isothiazol-2(3H)-yl)methoxy)-2-(2-isopropylphenyl)benzo[b]thiophen-3-yl)oxy)phenyl)acrylic acid] the “% ERα remaining” value (ERα) was 12% and the IC50 [1] was 44 nM.
With `CCC(C)c1ccccc1-c1sc2cc(O)ccc2c1Oc1ccc(/C=C/C(=O)O)cc1` (stereo not drawn) [Example 86, (E)-3-(4-((2-(2-(sec-butyl)phenyl)-6-hydroxybenzo[b]thiophen-3-yl)oxy)phenyl)acrylic acid] the IC50 (ERα) was 0.2 nM, the “% ERα remaining” value (ERα) was 12% and the IC50 [1] was 7 nM.
With `Cn1nnc(Cc2ccccc2-c2sc3cc(O)ccc3c2Oc2ccc(/C=C/C(=O)O)cc2)n1` [Example 96, (E)-3-(4-((6-hydroxy-2-(2-((2-methyl-2H-tetrazol-5-yl)methyl)phenyl)benzo [b]thiophen-3-yl)oxy)phenyl)acrylic acid] the IC50 (ERα) was 1.7 nM, the “% ERα remaining” value (ERα) was 14% and the IC50 [1] was 212 nM.
`COC(=O)/C=C/c1ccc(Oc2c(-c3ccccc3)sc3cc(O)ccc23)cc1` [Example 44, (E)-methyl 3-(4-((6-hydroxy-2-phenylbenzo[b]thiophen-3-yl)oxy)phenyl)-acrylate] was tested, and the “% ERα remaining” value (ERα) was 25% and the IC50 [1] was 10000 nM.
With `O=C(O)/C=C/c1ccc(Oc2c(-c3ccccc3CN3CCC3)sc3cc(O)ccc23)cc1` [Example 97, (E)-3-(4-((2-(2-(azetidin-1-ylmethyl)phenyl)-6-hydroxybenzo[b]thiophen-3-yl)oxy)phenyl)acrylic acid] the IC50 (ERα) was 25 nM, the “% ERα remaining” value (ERα) was 18% and the IC50 [1] was 292 nM.
`O=C(O)/C=C/c1ccc(Oc2c(-c3ccccc3CC(F)(F)F)sc3cc(O)ccc23)cc1` [Example 109, (E)-3-(4-((6-hydroxy-2-(2-(2,2,2-trifluoroethyl)phenyl)benzo[b]thiophen-3-yl)oxy)phenyl)acrylic acid] was tested, and the IC50 (ERα) was 0.2 nM, the “% ERα remaining” value (ERα) was 16% and the IC50 [1] was 12 nM.
In the case of `C#Cc1ccccc1-c1sc2cc(O)ccc2c1Oc1ccc(/C=C/C(=O)O)cc1` [Example 132, (E)-3-(4-((2-(2-ethynylphenyl)-6-hydroxybenzo[b]thiophen-3-yl)oxy)phenyl)acrylic acid], the “% ERα remaining” value (ERα) is reported as 16% and the IC50 [1] is reported as 890 nM.
For `CNC(=O)/C=C/c1ccc(Oc2c(-c3ccc(O)cc3)sc3cc(O)ccc23)cn1` [Example 71, (E)-3-(5-((6-hydroxy-2-(4-hydroxyphenyl)benzo[b]thiophen-3-yl)oxy)pyridin-2-yl)-N-methylacrylamide], the “% ERα remaining” value (ERα) was 41% and the IC50 [1] was 269 nM.
With `O=C(O)/C=C/c1ccc(Oc2c(-c3ccccc3CN3CCCC3)sc3cc(O)ccc23)cc1` [Example 92, (E)-3-(4-((6-hydroxy-2-(2-(pyrrolidin-1-ylmethyl)phenyl)benzo [b]thiophen-3-yl)oxy)phenyl)acrylic acid] the “% ERα remaining” value (ERα) was 16% and the IC50 [1] was 29 nM.
In the case of `CNC(=O)/C=C/c1ccc(Oc2c(-c3ccc(C(F)(F)F)cc3)sc3cc(O)ccc23)cc1` [Example 70, (E)-3-(4-((6-hydroxy-2-(4-(trifluoromethyl)phenyl)benzo[b]thiophen-3-yl)oxy)phenyl)-N-methylacrylamide], the IC50 (ERα) is reported as 9 nM, the “% ERα remaining” value (ERα) is reported as 32% and the IC50 [1] is reported as 41 nM.
With `CCOC(=O)/C=C/c1ccc(Oc2c(-c3ccccc3C(C)C)sc3cc(O)ccc23)cc1` [Example 137, (E)-ethyl 3-(4-((6-hydroxy-2-(2-isopropylphenyl)benzo [b]thiophen-3-yl)oxy)phenyl)acrylate] the “% ERα remaining” value (ERα) was 15% and the IC50 [1] was 9 nM.
In the case of `CC(C)c1ncoc1-c1sc2cc(O)ccc2c1Oc1ccc(/C=C/C(=O)O)cc1` [Example 115, (E)-3-(4-((6-hydroxy-2-(4-isopropyloxazol-5-yl)benzo[b]thiophen-3-yl)oxy)phenyl)acrylic acid], the IC50 (ERα) is reported as 5.3 nM, the “% ERα remaining” value (ERα) is reported as 15% and the IC50 [1] is reported as 267 nM.
In the case of `CC(C)c1ccccc1-c1sc2cc(O)ccc2c1Oc1ccc(/C=C/C(=O)O)nc1` [Example 117, (E)-3-(5-((6-hydroxy-2-(2-isopropylphenyl)benzo [b]thiophen-3-yl)oxy)pyridin-2-yl)acrylic acid], the “% ERα remaining” value (ERα) is reported as 16% and the IC50 [1] is reported as 54 nM.
With `O=C(O)/C=C/c1ccc(Oc2c(-c3ccccc3C3COC3)sc3cc(O)ccc23)cc1` [Example 123, (E)-3-(4-((6-hydroxy-2-(2-(oxetan-3-yl)phenyl)benzo[b]thiophen-3-yl)oxy)phenyl)acrylic acid] the IC50 (ERα) was 1.1 nM, the “% ERα remaining” value (ERα) was 15% and the IC50 [1] was 83 nM.
`O=C(O)/C=C/c1ccc(Oc2c(-c3ccccc3C(F)F)sc3cc(O)ccc23)cc1` [Example 79, (E)-3-(4-((2-(2-(difluoromethyl)phenyl)-6-hydroxybenzo [b]thiophen-3-yl)oxy)phenyl)acrylic acid] was tested, and the IC50 (ERα) was 4.2 nM, the “% ERα remaining” value (ERα) was 17% and the IC50 [1] was 52 nM.
With `COc1ccc(-c2sc3cc(O)ccc3c2Oc2ccc(/C=C/C(=O)O)cc2)c(C(C)C)c1` [Example 134, (E)-3-(4-((6-hydroxy-2-(2-isopropyl-4-methoxyphenyl)benzo [b]thiophen-3-yl)oxy)phenyl)acrylic acid] the IC50 (ERα) was 403 nM, the “% ERα remaining” value (ERα) was 12% and the IC50 [1] was 380 nM.
`CC/C(=C\c1ccc(Oc2c(-c3ccccc3C(C)C)sc3cc(O)ccc23)cc1)C(=O)O` [Example 113, (E)-2-(4-((6-hydroxy-2-(2-isopropylphenyl)benzo [b]thiophen-3-yl)oxy)benzylidene) butanoic acid] was tested, and the IC50 (ERα) was 2.2 nM, the “% ERα remaining” value (ERα) was 24% and the IC50 [1] was 62 nM.
For `Cc1occc1-c1sc2cc(O)ccc2c1Oc1ccc(/C=C/C(=O)O)cc1` [Example 131, (E)-3-(4-((6-hydroxy-2-(2-methylfuran-3-yl)benzo[b]thiophen-3-yl)oxy)phenyl)acrylic acid], the “% ERα remaining” value (ERα) was 12% and the IC50 [1] was 815 nM.
With `COc1ccc(-c2sc3cc(O)ccc3c2Oc2ccc(/C=C/C(=O)O)cc2)c(C)n1` [Example 129, (E)-3-(4-((6-hydroxy-2-(6-methoxy-2-methylpyridin-3-yl)benzo[b]thiophen-3-yl)oxy)phenyl)acrylic acid] the “% ERα remaining” value (ERα) was 22% and the IC50 [1] was 297 nM.
In the case of `CNC(=O)/C=C/c1ccc(Oc2c(-c3ccc(O)c(F)c3)sc3cc(O)ccc23)cc1` [Example 69, (E)-3-(4-((2-(3-fluoro-4-hydroxyphenyl)-6-hydroxybenzo[b]thiophen-3-yl)oxy)phenyl)-N-methylacrylamide], the IC50 (ERα) is reported as 24 nM, the “% ERα remaining” value (ERα) is reported as 26% and the IC50 [1] is reported as 185 nM.
For `Cc1cc(C(F)(F)F)ccc1-c1sc2cc(O)ccc2c1Oc1ccc(/C=C/C(=O)O)cc1` [Example 10, (E)-3-(4-((6-hydroxy-2-(2-methyl-4-(trifluoromethyl)phenyl)benzo[b]thiophen-3-yl)oxy)phenyl)acrylic acid], the IC50 (ERα) was 5 nM and the “% ERα remaining” value (ERα) was 17%.
`CCc1ccccc1-c1sc2cc(O)ccc2c1Oc1ccc(/C=C/C(=O)O)cc1` [Example 18, (E)-3-(4-((2-(2-ethylphenyl)-6-hydroxybenzo[b]thiophen-3-yl)oxy)phenyl)-acrylic acid] was tested, and the IC50 (ERα) was 1 nM and the “% ERα remaining” value (ERα) was 23%.
With `Cc1cc(F)ccc1-c1sc2cc(O)ccc2c1Oc1ccc(/C=C/c2nnc(C)n2C)cc1` [Example 106, (E)-3-(4-(2-(4,5-dimethyl-4H-1,2,4-triazol-3-yl)vinyl)phenoxy)-2-(4-fluoro-2-methylphenyl)benzo[b] thiophen-6-ol] the “% ERα remaining” value (ERα) was 17%.
In the case of `O=C(O)/C=C/c1ccc(Oc2c(-c3ccc(O)cc3)sc3c(F)c(O)c(F)cc23)cc1` [Example 38, (E)-3-(4-((5,7-difluoro-6-hydroxy-2-(4-hydroxyphenyl)benzo[b]thiophen-3-yl)oxy)phenyl)acrylic acid], the IC50 (ERα) is reported as 22 nM and the “% ERα remaining” value (ERα) is reported as 25%.
For `COC(=O)/C=C/c1ccc(Oc2c(-c3ccc(O)cc3)sc3c(F)c(O)c(F)cc23)cc1` [Example 37, (E)-methyl 3-(4-((5,7-difluoro-6-hydroxy-2-(4-hydroxyphenyl)-benzo[b]thiophen-3-yl)oxy)phenyl)acrylate], the “% ERα remaining” value (ERα) was 38%.
For `O=C(O)/C=C/c1ccc(Oc2c(-c3ccccc3Cl)sc3cc(O)ccc23)cc1` [Example 9, (E)-3-(4-((2-(2-chlorophenyl)-6-hydroxybenzo[b]thiophen-3-yl)oxy)phenyl)-acrylic acid], the IC50 (ERα) was 6 nM and the “% ERα remaining” value (ERα) was 18%.

— patent US10058534B2, “Benzothiophene derivatives and compositions thereof as selective estrogen receptor degraders” (NOVARTIS AG, priority 2013, dated 2018)
